# Laboratory results taken from PubChem BioAssay AID720587 (Broad Institute, 2013).
# Tested on: A673 Ewing sarcoma viability, CellTiter-Glo ATP luminescence, 72 h
# Assay: A673 Ewing sarcoma viability loss – cell-based, CellTiter-Glo luminescence, cherry-pick retest, confirmation (AID 720587)
row,Structure (SMILES),AC35
1,C[C@@H]1CN([C@H](C)CO)C(=O)CCCn2nncc2CO[C@H]1CN(C)Cc1ccc(Oc2ccccc2)cc1,21.1 µM
2,C[C@@H]1CCCCO[C@H](CN(C)Cc2ccc(C(=O)Nc3ccccc3N)cc2)[C@@H](C)CN([C@H](C)CO)C(=O)c2cc(NS(=O)(=O)c3ccc(F)cc3)ccc2O1,14.1 µM
3,C[C@H](CO)N1C[C@H](C)[C@@H](CN(C)Cc2ccc(C(F)(F)F)cc2)OCCCC[C@H](C)Oc2ccc(NS(=O)(=O)c3ccc(F)cc3)cc2C1=O,13.4 µM
4,CNC[C@H](CC1CCCCC1)NC[C@H](CO)NCCc1cccc(C(F)(F)F)c1,9.23 µM
5,Nc1nc(N)c2cc(Sc3ccc4ccccc4c3)ccc2n1,3.35 µM
6,C=C(C(=O)c1ccccc1)C(C)C(=C)C(=O)c1ccccc1,4.81 µM
7,COc1ccc(N=C2C(=O)Nc3ccc(C)c(Br)c32)cc1,17 µM
8,Nc1nc2cc3c(cc2cc1C(=O)NCCc1c[nH]c2ccccc12)OCO3,8.07 µM
9,Cc1ccccc1S(=O)(=O)N1CC[C@@H]2[C@@H](CO)Nc3ccc(-c4ccc(C#N)cc4)cc3[C@@H]21,4.47 µM
10,Cc1cc(C(=O)Nc2ccc3c(c2)C(=O)N(C)[C@@H]2CC[C@H](CC(=O)N[C@H](C)c4ccccc4)O[C@H]2CO3)no1,12.9 µM
11,O=c1[nH]c(=O)n([C@H]2C[C@H](O)[C@@H](CO)O2)cc1F,0.0545 µM
12,C=CCOc1ccccc1C(=O)/C=C1/C(=O)Nc2ccccc21,9.62 µM
13,Oc1c(Cl)cc(Cl)c(Cl)c1Cc1c(O)c(Cl)cc(Cl)c1Cl,15.9 µM
14,C[C@H](CO)N1C[C@H](C)[C@H](CN(C)Cc2ccc(C(=O)Nc3ccccc3N)cc2)Oc2ccc(N(C)C)cc2C1=O,9.49 µM
15,CO[C@H]1CN(C)C(=O)c2cc(NC(=O)c3ccc(Oc4ccccc4)cc3)ccc2OC[C@H](C)NC[C@@H]1C,12.3 µM
16,COc1cccc(-c2cc(NC=O)c3ncc(-c4ccc(C(C)=O)cc4)n3c2)c1,4.09 µM
17,C[C@H]1CN([C@@H](C)CO)S(=O)(=O)c2ccc(C#Cc3ccncc3)cc2O[C@@H]1CN(C)S(=O)(=O)c1ccccc1,16.5 µM
18,CC(=NNc1ccc2ccccc2n1)c1ccccc1O,13.9 µM
19,COc1ccc(-c2cnc3c(NC=O)cc(-c4ccccc4OC)cn23)cc1OC,0.101 µM
20,O=C1NC(=O)N(Cc2ccc(F)cc2)C(=O)/C1=C\C=C\c1ccco1,5.3 µM
21,C[C@@H]1CN([C@@H](C)CO)C(=O)c2cc(NC(=O)c3ccccc3)ccc2O[C@@H](C)CCCCO[C@H]1CN(C)C(=O)Nc1cccc2ccccc12,0.62 µM
22,O=C(N/N=C/c1cccs1)c1n[nH]c2c1CCCC2,17.7 µM
23,O=c1oc2cc(O)ccc2s1,12.5 µM

row,Structure (SMILES),AC35
1,CC(=O)ON=C1C=CC(=C(C#N)c2ccccc2)C=C1,5.49 µM
2,C[C@H]1CN([C@@H](C)CO)C(=O)c2cc(NC(=O)C3CCCCC3)ccc2O[C@H]1CN(C)Cc1ccc(C(=O)Nc2ccccc2N)cc1,11.5 µM
3,C[C@H]1CN([C@@H](C)CO)C(=O)Cc2cc(NC(=O)C3CC3)ccc2O[C@H]1CN(C)S(=O)(=O)c1ccc(Cl)cc1,15.6 µM
4,O=C1NC2C(=CC(O)C(O)C2O)c2cc3c(cc21)OCO3 (centres undefined),0.837 µM
5,O=C(C[C@H]1C[C@H]2c3cc(NS(=O)(=O)c4ccc(F)cc4)ccc3O[C@H]2[C@H](CO)O1)NCc1ccc(Oc2ccccc2)cc1,12.6 µM
6,CC(=O)Nc1cccc(-c2ccnc3c2CC(C)(C(=O)NCc2ccc(N(C)C)cc2)O3)c1 (centres undefined),13.3 µM
7,CCCC[C@@H]1Cc2[nH][nH]c(=O)c2[C@H](c2ccc3ccccc3c2)O1,7.67 µM
8,OC[C@H]1O[C@@H](n2cnc3c(NCc4ccco4)ncnc32)[C@H](O)[C@@H]1O,3.68 µM
9,COc1ccc(C2=Nn3c(nnc3-c3ccccc3F)SC2)cc1OC1CCOC1 (centres undefined),13.5 µM
10,O=C1/C(=C\c2ccccc2)CN(C(=O)CCN2CCCCC2)C/C1=C/c1ccccc1,0.734 µM
11,CC1(C)N=C(N)N=C(N)N1c1ccc(CCCCc2ccccc2)cc1,0.65 µM
12,N/C(=C\C(=O)c1cc(Cl)ccc1O)C(Cl)(Cl)Cl,4 µM
13,O=C(O)c1ccc(N/N=C/c2ccc3c(c2)OCO3)cc1,16.5 µM
14,C[C@@H]1CN([C@@H](C)CO)C(=O)c2cc(NS(=O)(=O)c3ccc(Cl)cc3)ccc2O[C@@H]1CN(C)Cc1ccc(C(=O)Nc2ccccc2N)cc1,10.7 µM
15,Cc1ccc(OCCNC(=O)c2cccc(S(=O)(=O)NCc3ccccc3)c2)cc1,4.65 µM
16,Cc1cc(C)cc(N2C(=O)NC(=O)/C(=C\C=C\c3ccco3)C2=O)c1,3.84 µM
17,C[C@@H]1CN([C@H](C)CO)C(=O)c2cc(NC(=O)Nc3ccccc3)ccc2O[C@@H]1CN(C)Cc1ccc(C(=O)Nc2ccccc2N)cc1,9.7 µM
18,COc1cc2c(cc1NC(=O)CN(C)Cc1ccc(OC)c(OC)c1)oc1ccccc12,21.5 µM
19,c1ccc(Nc2nnc(-c3ccc4c(c3)OCO4)o2)cc1,11.9 µM
20,S=c1[nH]nc(-c2cc(-c3ccccc3)n[nH]2)n1/N=C/C(Br)=C/c1ccccc1,5.5 µM
21,C[C@@H]1CN([C@@H](C)CO)C(=O)Cc2cc(N(C)C)ccc2O[C@H]1CN(C)Cc1ccc(C(=O)Nc2ccccc2N)cc1,8.7 µM
22,Nc1sc(-c2ccccc2)cc1-c1n[nH]c(=S)n1C1CCCCC1,6.83 µM
23,C[C@@H]1CN([C@H](C)CO)C(=O)c2cc(NC(=O)CCCCCC(=O)Nc3ccccc3N)ccc2O[C@@H]1CN(C)Cc1ccc(Cl)c(Cl)c1,9.95 µM

row,Structure (SMILES),AC35
1,COc1ccc(Cn2cc3c(-c4ccc(F)cc4)nnc-3c3cc(OC)c(OC)cc32)cc1,4.86 µM
2,Cc1ccc(S(=O)(=O)Nc2ccc3c(c2)C(=O)N([C@@H](C)CO)C[C@@H](C)[C@@H](CN(C)Cc2ccc(C(=O)Nc4ccccc4N)cc2)O3)cc1,9.91 µM
3,CC(=NNc1cc(C)c2ccccc2n1)c1ccccn1,0.417 µM
4,C=C(C(=O)c1ccccc1)C(C(=C)C(=O)c1ccccc1)c1ccc(OC)cc1,4.04 µM
5,CCOc1ccc(N=C2C(=O)Nc3ccc(C)c(Br)c32)cc1,20.7 µM
6,CCOc1cc(N2CCC(O)CC2)ccc1Nc1ncc2c(n1)N(C)c1ccccc1C(=O)N2C,21 µM
7,CC(C)CC#Cc1ccc([C@@H]2[C@@H](CO)N3CCCCN(S(=O)(=O)c4ccc(F)cc4)C[C@H]23)cc1,8.8 µM
8,C(=Cc1c[nH]c2ccccc12)c1ccc2ccccc2n1,1.16 µM
9,C[C@@H]1CN([C@@H](C)CO)C(=O)Cc2cc(NC(=O)C3CCCCC3)ccc2O[C@H]1CN(C)Cc1ccc(C(=O)Nc2ccccc2N)cc1,20.8 µM
10,CCCCCCCCCCCCCCCCCCNc1ccn(C2OC(COP(=O)(O)OCC3OC(n4cc(F)c(=O)[nH]c4=O)CC3O)C(O)C2O)c(=O)n1 (centres undefined),0.137 µM
11,CN1C(=O)c2cc(NC(=O)c3ccc(Cl)cc3)ccc2OC[C@@H]2O[C@@H](CC(=O)NCc3cccc(F)c3)CC[C@H]21,5.42 µM
12,COc1ccc(CN(C)C[C@H]2Oc3ccc(NC(=O)CCCCCC(=O)Nc4ccccc4N)cc3CC(=O)N([C@H](C)CO)C[C@H]2C)cc1,18 µM
13,COC(=O)C[C@@H]1CC[C@H]2[C@H](COc3ccc(NC(=O)Nc4ccc(C#N)cc4)cc3C(=O)N2C)O1,11.3 µM
14,COc1cc2c(cc1OC)C(C)N(C(=O)c1cc(Cl)nc(Cl)c1)CC2 (centres undefined),12.1 µM
15,COc1ccc(NC(=S)N=Nc2c(O)[nH]c3ccccc23)cc1,1.75 µM
16,Cc1cc2c(C(C)C)c(O)c(O)c(C=O)c2c(O)c1-c1c(C)cc2c(C(C)C)c(O)c(O)c(C=O)c2c1O,6.09 µM
17,N#CC1C=Cc2c(ccc3ccccc23)N1C(=O)c1ccccc1 (centres undefined),9.42 µM
18,C#CCOCCOCCOCCNc1nc(N2CCN(C(=O)CCCCCCCCCCNC(=O)Cn3cc(C[C@@H](C)O)nn3)CC2)nc(N2CCN(C(=O)CCCCCCCCCCNC(=O)[C@H](CO)n3cc(CCCSC)nn3)CC2)n1,13.3 µM
19,COC1C(C)OC(OC2CC(C)(O)Cc3cc4c(c(O)c32)C(=O)c2c(O)cc3c(c2C4=O)OC2OC3(C)C(O)C(N(C)C)C2O)C(OC)C1(C)OC (centres undefined),0.0582 µM
20,Cc1ccc2nc(-c3ccccc3)nn2c1,13.8 µM
21,C=C1C(=O)[C@@]23[C@H](O)C[C@@H]4C(C)(C)CC[C@H](O)[C@@]4(C)[C@@H]2CC[C@@H]1[C@H]3O,3.15 µM
22,OCC1OC(n2cnc3c(NCc4ccco4)ncnc32)C(O)C1O (centres undefined),4.04 µM
23,CC(C)N1C/C(=C/c2cccnc2)C(=O)/C(=C/c2cccnc2)C1,10.5 µM

row,Structure (SMILES),AC35
1,Brc1ccc(CSc2nnc(-c3ccco3)o2)cc1,6.49 µM
2,CN1C/C(=C/c2ccsc2)C(=O)/C(=C/c2ccsc2)C1,8.67 µM
3,Cc1ccc(C(C)C)c(OCc2ccc(C(=O)N/N=C/c3ccc(O)cc3O)cc2)c1,0.296 µM
4,C[C@@H]1CN([C@@H](C)CO)C(=O)c2cc(N(C)C)ccc2O[C@H]1CN(C)Cc1ccc(C(=O)Nc2ccccc2N)cc1,13.2 µM
5,C[C@H](CO)N1C[C@H](C)[C@H](CN(C)Cc2ccccc2)Oc2ccc(NC(=O)CCCCCC(=O)Nc3ccccc3N)cc2CC1=O,15.7 µM
6,Nc1nc(N)c2c(ccc3nccc32)[nH]1,7.01 µM
7,NC(Cc1ccc(C(F)(F)F)cc1)c1csc(NC(=O)Nc2ccccc2Cc2ccccc2)n1 (centres undefined),12.8 µM
8,CC12CCC(O)CC1CCC1C2CCC2(C)C(C3=CC(=O)OC3)CCC12O (centres undefined),0.385 µM
9,CN=c1scc(-c2ccccc2F)n1/N=C/c1ccc(O)c(O)c1O,11.6 µM
10,C[C@@H]1CN([C@H](C)CO)S(=O)(=O)c2ccc(C#Cc3ccncc3)cc2O[C@@H]1CN(C)C(=O)Nc1ccc2c(c1)OCO2,19.4 µM
11,C[C@@H]1CN([C@@H](C)CO)C(=O)Cc2cc(NS(=O)(=O)c3cccs3)ccc2O[C@H]1CN(C)Cc1ccc(Cl)c(Cl)c1,12.5 µM
12,COc1ccc(/C=C2\Oc3ccccc3C2=O)cc1,22.9 µM
13,COC(=O)[C@H]1[C@H](CO)[C@H]2Cn3c(ccc(-c4ccccc4F)c3=O)[C@@H]1N2CC1CCCC1,17.4 µM
14,CCCCCCCCn1c2c(c(=N)c3c1CCC3)CCCC2,5.07 µM
15,CC(=O)OC1CC(OC2C(O)CC(OC3C(O)CC(OC4CCC5(C)C(CCC6C5CCC5(C)C(C7=CC(=O)OC7)C(O)CC65O)C4)OC3C)OC2C)OC(C)C1OC1OC(CO)C(O)C(O)C1O (centres undefined),1.26 µM
16,Cc1ccc(/C=N/Nc2ccnc3cc(Cl)ccc23)c(C)c1,6.15 µM
17,C[C@H]1CN([C@@H](C)CO)C(=O)Cc2cc(NC(=O)CCCCCC(=O)Nc3ccccc3N)ccc2O[C@H]1CN(C)Cc1ccc(C(F)(F)F)cc1,12.5 µM
18,Cc1ccc(S(=O)(=O)N(C)C[C@@H]2Oc3ccc(NC(=O)CCCCCC(=O)Nc4ccccc4N)cc3CC(=O)N([C@@H](C)CO)C[C@@H]2C)cc1,15.3 µM
19,O=C(O)c1ccc(N/N=C/c2ccc3nccnc3c2)cc1,15 µM
20,O=c1[nH]c(=O)n([C@H]2C[C@H](O)[C@@H](CO)O2)cc1C(F)(F)F,4.17 µM
